Data on nine compounds can be found in patent publication US20070105961A1, “1-Amino-alkylcyclohexanes as 5-HT3 and neuronal nicotinic receptor antagonists” (MERZ PHARMA GMBH & CO. KGAA, priority 2000, published 2007).

For the first assay, the target named is T1, NMDA receptors.
T1 construct: other: rat cortical membranes
Assay: not given
The note with it: read-out: [3H]MK (displacement of [3H]MK-801 binding); rat cortical membranes; Table 3; cited from earlier work.
Consider `CCC1(C)CC(C)(C)CC(C)(N)C1` (mixture of isomers) [MRZ 2/615, 1-Amino-1,3,5,5-tetramethyl-3-ethylcyclohexane (mixture of diastereomers)], for which the Ki was 2.29 µM.

Take `CC1CC(C)CC(C)(N)C1` (mixture of isomers) [MRZ 2/616, 1-Amino-1,3,5-trimethylcyclohexane (mixture of diastereomers)]: the Ki was 9.94 µM.

As to `CCCC1(C)CCCC(C)(N)C1` (mixture of isomers) [MRZ 2/617, 1-Amino-1,3-dimethyl-3-propylcyclohexane (mixture of diastereomers)], the Ki is 36.1 µM.

Turning to `C[C@H]1CCC[C@](C)(N)C1` (relative stereo) [MRZ 2/625, 1-Amino-1,3(trans)-dimethylcyclohexane], the Ki was 49 µM.

Turning to `CCC[C@H]1CCC[C@](C)(N)C1` (relative stereo) [MRZ 2/627, 1-Amino-1-methyl-3(trans)propylcyclohexane], the Ki is 67.3 µM.

Consider `CC[C@H]1CCC[C@](C)(N)C1` (relative stereo) [MRZ 2/629, 1-Amino-1-methyl-3(trans)ethylcyclohexane], for which the Ki was 46.7 µM.

As to `CC1(C)CC(C)(C)CC(C)(N)C1` [MRZ 2/579, 1-Amino-1,3,3,5,5-pentamethylcyclohexane], the Ki was 1.44 µM.

Take `CCCC1(C)CC(C)CC(C)(N)C1` (stereo not drawn) [MRZ 2/618, 1-Amino-1,3(trans),5(trans)-trimethyl-3(cis)-propylcyclohexane]: the Ki was 22.8 µM.

With `CCC1(C)CCCC(C)(N)C1` (stereo not shown) [MRZ 2/620, 1-Amino-1,3-dimethyl-3-ethylcyclohexane], the Ki is 24.2 µM.

Staying with this assay, now noted: read-out: [3H]MK- (displacement of [3H]MK-801 binding); rat cortical membranes; Table 2; cited from earlier work.
As for `CCC1(C)CC(C)(C)CC(C)(N)C1` (mixture of isomers) [MRZ 2/615, 1-Amino-1,3,5,5-tetramethyl-3-ethylcyclohexane (mixture of diastereomers)], the Ki was 2.29 µM.

Take `CC1CC(C)CC(C)(N)C1` (mixture of isomers) [MRZ 2/616, 1-Amino-1,3,5-trimethylcyclohexane (mixture of diastereomers)]: the Ki is 10.4 µM.

In the case of `CC1(C)CC(C)(C)CC(C)(N)C1` [MRZ 2/579, 1-Amino-1,3,3,5,5-pentamethylcyclohexane], the Ki is 1.4 µM.

In the next assay the target is T2, NMDA receptors.
T2 construct: PC NMDA (antagonism of NMDA-induced inward currents); other: at −70 mV, cultured rat hippocampal neurones; PC (PC NMDA, antagonism of NMDA-induced inward currents)
Assay: not given
The note with it: at −70 mV, cultured rat hippocampal neurones; Table 2; read-out: PC NMDA (antagonism of NMDA-induced inward currents); cited from earlier work.
Turning to `CCC1(C)CC(C)(C)CC(C)(N)C1` (mixture of isomers) [MRZ 2/615, 1-Amino-1,3,5,5-tetramethyl-3-ethylcyclohexane (mixture of diastereomers)], the IC50 was 1.3 µM.

For the compound `CC1CC(C)CC(C)(N)C1` (mixture of isomers) [MRZ 2/616, 1-Amino-1,3,5-trimethylcyclohexane (mixture of diastereomers)], the IC50 was 33.2 µM.

For `CC1(C)CC(C)(C)CC(C)(N)C1` [MRZ 2/579, 1-Amino-1,3,3,5,5-pentamethylcyclohexane], the IC50 was 1.3 µM.

Still in this assay, the particulars now being: at −70 mV, cultured rat hippocampal neurones; Table 3; read-out: PC (PC NMDA, antagonism of NMDA-induced inward currents); cited from earlier work.
For `CCC1(C)CC(C)(C)CC(C)(N)C1` (mixture of isomers) [MRZ 2/615, 1-Amino-1,3,5,5-tetramethyl-3-ethylcyclohexane (mixture of diastereomers)], the IC50 was 2.9 µM.

For the compound `CC1CC(C)CC(C)(N)C1` (mixture of isomers) [MRZ 2/616, 1-Amino-1,3,5-trimethylcyclohexane (mixture of diastereomers)], the IC50 is 33.2 µM.

Take `CCCC1(C)CCCC(C)(N)C1` (mixture of isomers) [MRZ 2/617, 1-Amino-1,3-dimethyl-3-propylcyclohexane (mixture of diastereomers)]: the IC50 was 63.9 µM.

`C[C@H]1CCC[C@](C)(N)C1` (relative stereo) [MRZ 2/625, 1-Amino-1,3(trans)-dimethylcyclohexane]: the IC50 was 245 µM.

In the case of `CCC[C@H]1CCC[C@](C)(N)C1` (relative stereo) [MRZ 2/627, 1-Amino-1-methyl-3(trans)propylcyclohexane], the IC50 is 150 µM.

In the case of `CC[C@H]1CCC[C@](C)(N)C1` (relative stereo) [MRZ 2/629, 1-Amino-1-methyl-3(trans)ethylcyclohexane], the IC50 was 219 µM.

For `CC1(C)CC(C)(C)CC(C)(N)C1` [MRZ 2/579, 1-Amino-1,3,3,5,5-pentamethylcyclohexane], the IC50 is 1.3 µM.

With `CCCC1(C)CC(C)CC(C)(N)C1` (stereo not drawn) [MRZ 2/618, 1-Amino-1,3(trans),5(trans)-trimethyl-3(cis)-propylcyclohexane], the IC50 is 57.5 µM.

On to `CCC1(C)CCCC(C)(N)C1` (stereo not shown) [MRZ 2/620, 1-Amino-1,3-dimethyl-3-ethylcyclohexane], for which the IC50 is 99 µM.

For a further assay, the target named is T3, 5-HT3 receptors (Mus musculus, UniProt P23979).
T3 construct: against “steady-state” responses of N1E-115 cells to serotonin (10 μM); host or cells: N1E-115 cells
T3 sequence (P23979 24-489): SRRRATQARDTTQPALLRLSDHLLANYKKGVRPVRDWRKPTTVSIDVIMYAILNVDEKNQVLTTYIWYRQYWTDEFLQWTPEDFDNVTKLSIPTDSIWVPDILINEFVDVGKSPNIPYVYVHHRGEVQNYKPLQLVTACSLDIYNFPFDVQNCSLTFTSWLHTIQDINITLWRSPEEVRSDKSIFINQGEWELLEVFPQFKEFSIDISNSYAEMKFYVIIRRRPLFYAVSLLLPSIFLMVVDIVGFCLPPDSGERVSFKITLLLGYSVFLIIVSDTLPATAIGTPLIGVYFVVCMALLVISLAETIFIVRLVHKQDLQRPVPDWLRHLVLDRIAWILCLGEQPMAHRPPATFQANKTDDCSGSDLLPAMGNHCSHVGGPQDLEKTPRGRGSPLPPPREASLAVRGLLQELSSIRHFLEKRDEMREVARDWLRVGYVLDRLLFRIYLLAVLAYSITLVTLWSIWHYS
The experiment in a line: patch clamp, antagonism of serotonin-induced inward currents in N1E-115 cells. The assay is classed as cell-based. To be noted: serotonin (10 μM) applied for 2 secs, read-out: 5HT3 IC50 against steady-state responses. The protocol: N1E-115 cells were purchased from the European collection of cell cultures (ECACC, Salisbury, UK) and stored at −80° C. until further use. The cells were plated at a density of 100,000 cells cm^−2 onto plastic Petri dishes (Falcon) and were nourished with NaHCO3/HEPES-buffered minimum essential medium (MEM) supplemented with 15% foetal calf serum (Gibco) and incubated at 37° C. with 5% CO2 at 95% humidity. The medium was exchanged completely daily. Once every three days, cells were re-seeded onto fresh Petri dishes following treatment with trypsin-EDTA (1% in PBS), resuspension in MEM, and centrifugation at 1000 for 4 mins.
Patch clamp recordings were made from lifted cells, 2-3 days following seeding with polished glass electrodes (2-3 MΩ) in the whole cell mode at room temperature (20-22° C.) with an EPC-7 amplifier (List). Test substances were applied as for hippocampal cells. The contents of the intracellular solution were as follows (mM): CsCl (130), HEPES (10), EGTA (10), MgCl2 (2), CaCl2 (2), K-ATP (2), Tris-GTP (0.2), D-Glucose (10); pH was adjusted to 7.3 with CsOH or HCl. The extracellular solutions had the following basic composition (mM): NaCl (124), KCl (2.8), HEPES (10), pH 7.3 with NaOH or HCl.
Only results from stable cells were accepted for inclusion in the final analysis, i.e., showing at least 75% recovery of responses to agonist (serotonin or Ach) following removal of the antagonist tested. Despite this, recovery from drug actions wasn't always 100% because of rundown in some cells (<=10% over 10 mins). When present, this was always compensated by basing the % antagonism at each concentration on both control and recovery and assuming a linear time course for this rundown. All antagonists were assessed at steady-state blockade with 3 to 6 concentrations on at least 5 cells. Equilibrium blockade was achieved within 2 to 5 agonist applications, depending on antagonist concentration.
FIG. 1A and FIG. 1B show concentration-dependence of the blockade of 5HT3 receptors by MRZ 2/633 in cultured N1E-115 cells. Serotonin (10 μM) was applied for 2 seconds every 30 seconds in the continuous presence of various concentrations of MRZ 2/633 (1-10 μM).
B: Peak and steady-state (plateau) serotonin current responses were normalized to control levels and plotted as means (±SEM) against MRZ 2/633 concentration (n=8). Estimation of IC50s and curve fitting were made according to the 4 parameter logistic equation (GraFit, Erithacus Software).
For orientation: In patch-clamp work, channel activity is measured electrically.
As for `CCC1(C)CC(C)(C)CC(C)(N)C1` (mixture of isomers) [MRZ 2/615, 1-Amino-1,3,5,5-tetramethyl-3-ethylcyclohexane (mixture of diastereomers)], the IC50 worked out at 2.5 µM.

For `CC1CC(C)CC(C)(N)C1` (mixture of isomers) [MRZ 2/616, 1-Amino-1,3,5-trimethylcyclohexane (mixture of diastereomers)], the IC50 was found to be 38.7 µM.

Consider `CC1(C)CC(C)(C)CC(C)(N)C1` [MRZ 2/579, 1-Amino-1,3,3,5,5-pentamethylcyclohexane], for which the IC50 turned out to be 1.7 µM.

Another assay deals with T4, α7 neuronal nicotinic receptors (Rattus norvegicus, UniProt Q05941).
T4 construct: against peak responses of cultured hippocampal neurones to Ach (1 mM) applied for 2 secs; endogenous in cells; host or cells: cultured rat embryonic hippocampal neurones
T4 sequence (Q05941 23-502): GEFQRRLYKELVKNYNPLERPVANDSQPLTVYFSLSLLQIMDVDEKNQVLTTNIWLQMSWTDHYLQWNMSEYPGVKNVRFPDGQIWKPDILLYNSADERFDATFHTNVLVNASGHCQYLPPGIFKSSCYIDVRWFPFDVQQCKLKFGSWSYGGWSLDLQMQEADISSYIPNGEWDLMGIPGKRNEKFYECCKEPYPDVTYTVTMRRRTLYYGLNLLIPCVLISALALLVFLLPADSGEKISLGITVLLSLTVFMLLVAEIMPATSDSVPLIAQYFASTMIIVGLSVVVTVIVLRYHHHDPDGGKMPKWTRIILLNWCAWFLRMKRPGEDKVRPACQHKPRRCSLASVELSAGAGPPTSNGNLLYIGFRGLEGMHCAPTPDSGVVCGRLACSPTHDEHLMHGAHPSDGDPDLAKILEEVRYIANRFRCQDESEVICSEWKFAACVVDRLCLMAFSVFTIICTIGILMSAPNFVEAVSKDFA
The experiment in a line: patch clamp, antagonism of Ach-induced inward currents in cultured hippocampal neurones. The assay is classed as cell-based. To be noted: cultured hippocampal neurones, Ach (1 mM) applied for 2 secs; read-out: PC Ach IC50 against peak responses.
On to `CCC1(C)CC(C)(C)CC(C)(N)C1` (mixture of isomers) [MRZ 2/615, 1-Amino-1,3,5,5-tetramethyl-3-ethylcyclohexane (mixture of diastereomers)], for which the IC50 stood at 2.21 µM.

As to `CC1CC(C)CC(C)(N)C1` (mixture of isomers) [MRZ 2/616, 1-Amino-1,3,5-trimethylcyclohexane (mixture of diastereomers)], the IC50 amounted to 3.4 µM.

For the compound `CCCC1(C)CCCC(C)(N)C1` (mixture of isomers) [MRZ 2/617, 1-Amino-1,3-dimethyl-3-propylcyclohexane (mixture of diastereomers)], the IC50 came out at 1.16 µM.

As for `C[C@H]1CCC[C@](C)(N)C1` (relative stereo) [MRZ 2/625, 1-Amino-1,3(trans)-dimethylcyclohexane], the IC50 turned out to be 3.29 µM.

With `CCC[C@H]1CCC[C@](C)(N)C1` (relative stereo) [MRZ 2/627, 1-Amino-1-methyl-3(trans)propylcyclohexane], the IC50 was 2.6 µM.

With `CC[C@H]1CCC[C@](C)(N)C1` (relative stereo) [MRZ 2/629, 1-Amino-1-methyl-3(trans)ethylcyclohexane], the IC50 is 2.05 µM.

Consider `CC1(C)CC(C)(C)CC(C)(N)C1` [MRZ 2/579, 1-Amino-1,3,3,5,5-pentamethylcyclohexane], for which the IC50 stood at 30 µM.

Consider `CCCC1(C)CC(C)CC(C)(N)C1` (stereo not drawn) [MRZ 2/618, 1-Amino-1,3(trans),5(trans)-trimethyl-3(cis)-propylcyclohexane], for which the IC50 amounted to 0.65 µM.

In the case of `CCC1(C)CCCC(C)(N)C1` (stereo not shown) [MRZ 2/620, 1-Amino-1,3-dimethyl-3-ethylcyclohexane], the IC50 worked out at 2.44 µM.

The same assay, now with this note: hippocampal neurones.
Consider `CC1CC(C)CC(C)(N)C1` (mixture of isomers) [MRZ 2/616, 1-Amino-1,3,5-trimethylcyclohexane (mixture of diastereomers)], for which the “α7 neuronal nicotinic antagonism (in words)” value is on record as “much more potent in this regard than previously reported for NMDA receptors”.
